# Read-outs that look alike come from different tables or passages of the source.
# Legend:
# [1] = capsule, cited from earlier work; for Observed AUC(0-t) / Observed Cmax: geometric mean; for Observed Cmax: healthy individuals
# [2] = In vitro plasma protein binding; assay type: in vitro ADME, human; settings: unpublished data reported by Eisai Inc.
# [3] = cited from earlier work
# [4] = multiple 10 mg oral doses, capsule, cited from earlier work
# [5] = tested on: cryopreserved human hepatocytes; assay: Metabolism in cryopreserved human hepatocytes with CYP inhibitors; assay type: in vitro ADME; settings: 1-aminobenzotriazole, troleandomycin and ketoconazole
# [6] = single 10 mg oral dose, IR tablet, DDI study, cited from earlier work
# CYP2B6 [7] = settings: lemborexant 10 mg q.d. for 13 days, bupropion 75 mg on day 10, healthy adults; cited from earlier work
# [8] = pKa by capillary electrophoresis method; assay type: physicochemical
# [9] = PBPK simulation of lemborexant PK in healthy individuals; design: species or system human
# [10] = tested on: other CYP isoforms (1A2, 2A6, 2B6, 2C8, 2C9, 2C19, 2D6, 2E1, 2J2, 3A5, 4F12); assay: Metabolism by recombinant human CYP isoforms; assay type: in vitro ADME; settings: 37°C for 20 min; unpublished data reported by Eisai Inc.
# [11] = Biliary excretion in rats; assay type: in vivo
# P-glycoprotein = settings: in vitro; cited from earlier work
# [12] = human mass-balance study, cited from earlier work
# CYP3A [13] = assay: In vitro time-dependent inhibition; assay type: in vitro ADME; settings: unpublished data reported by Eisai Inc.
# [14] = tested on: breast cancer resistance protein; settings: in vitro; cited from earlier work
# [15] = single 10 mg oral dose, IR tablet, ref study E2006-A001-008 (NCT02089412), cited from earlier work; for Observed Cmax: geometric mean
# [16] = Human blood to plasma concentration ratio; assay type: in vitro ADME
# [17] = cited from earlier work; remark: listed apart in the source
# CYP2B6 [18] = assay: In vitro induction; assay type: in vitro ADME; settings: unpublished data reported by Eisai Inc.
# CYP3A [19] = settings: cited from earlier work
# CYP3A4 [20] = assay: In vitro induction; assay type: in vitro ADME; settings: unpublished data reported by Eisai Inc.
# CYP3A4 [21] = biological target: CYP3A4 (Homo sapiens, UniProt P08684); assay: Metabolism by recombinant human CYP isoforms; assay type: in vitro ADME; settings: 37°C for 20 min; unpublished data reported by Eisai Inc.
# [22] = multiple 10 mg oral doses, day 1
# [23] = multiple 10 mg oral doses, day 14
# [24] = single 10 mg oral dose, IR tablet, fasted, food effect study
# [25] = single 10 mg oral dose, IR tablet, fed
# [26] = single 10 mg oral dose, solution vs capsule
# [27] = single 100 mg oral dose, solution vs capsule
# [28] = co-administration with rifampicin 600 mg q.d.
# [29] = lemborexant 10 mg with fluconazole 200 mg q.d.
# CYP3A4 (Homo sapiens, UniProt P08684), sequence (P08684 whole entry, canonical isoform): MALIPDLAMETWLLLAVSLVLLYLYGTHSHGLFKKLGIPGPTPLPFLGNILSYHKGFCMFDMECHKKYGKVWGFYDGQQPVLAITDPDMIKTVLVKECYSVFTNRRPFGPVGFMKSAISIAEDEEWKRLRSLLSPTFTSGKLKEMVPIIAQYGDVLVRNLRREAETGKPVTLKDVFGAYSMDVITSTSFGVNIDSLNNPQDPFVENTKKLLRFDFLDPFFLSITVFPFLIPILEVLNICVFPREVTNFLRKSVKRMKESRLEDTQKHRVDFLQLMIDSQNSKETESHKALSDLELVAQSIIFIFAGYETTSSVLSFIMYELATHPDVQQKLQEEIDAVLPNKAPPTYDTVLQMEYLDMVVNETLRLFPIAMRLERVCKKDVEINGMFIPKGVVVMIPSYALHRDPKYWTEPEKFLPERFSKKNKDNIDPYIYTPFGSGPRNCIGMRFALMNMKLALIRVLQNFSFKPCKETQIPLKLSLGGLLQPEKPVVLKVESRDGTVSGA
smiles,measurement,setting,value
Cc1ncc(OC[C@@]2(c3cccc(F)c3)C[C@H]2C(=O)Nc2ccc(F)cn2)c(C)n1 [lemborexant],Observed AUC(0-t),[1]; single 2.5 mg oral dose,74.4 ng·h/mL
same,Observed Cmax,[1]; single 2.5 mg oral dose,14.9 ng/mL
same,Observed AUC(0-t),[1]; single 10 mg oral dose,274 ng·h/mL
same,Observed Cmax,[1]; single 10 mg oral dose,32.0 ng/mL
same,Observed Tmax,"[1]; single 10 mg oral dose, median",1.00 h
same,Observed AUC(0-t),[1]; single 100 mg oral dose,"4,300 ng∙h/ml"
same,Observed Cmax,[1]; single 100 mg oral dose,242 ng/mL
same,Main binding protein in plasma,[2],"human serum albumin, low‐density lipoprotein, and high‐density lipoprotein"
same,in vitro plasma protein binding (bound),"[3]; human plasma, 100–1000 ng/ml, no concentration dependency",87.4–88.7%
same,Fu (fraction unbound in plasma),[3]; mean value based on lemborexant 100 ng/ml,0.113
same,Observed AUC(0-t),"[4]; day 1, geometric mean",182 ng·h/mL
same,Observed Cmax,"[4]; day 1, geometric mean",28.0 ng/mL
same,Observed Tmax,"[4]; day 1, median",3.25 h
same,Observed AUC(0-t),"[4]; day 14, geometric mean",321 ng·h/mL
same,Observed Cmax,"[4]; day 14, geometric mean",44.8 ng/mL
same,Observed Tmax,"[4]; day 14, median",1.75 h
same,lemborexant metabolism in human hepatocytes in presence of CYP inhibitors,[5],completely inhibited
same,Observed AUC(0-t),[6]; geometric mean,411 ng·h/mL
same,Observed Tmax,[6]; median,1.00 h
same,Observed Cmax,"[6]; healthy individuals, geometric mean",54.3 ng/mL
same,decrease in plasma exposures of S-bupropion,CYP2B6 [7],45.5%
same,pKa,[8],< 3.5
same,fold difference (predicted/observed) of Cmax ratio for fasted and fed conditions,"[9]; food effect study 008, 10 mg IR tablet",0.768
same,"Fold difference, predicted/observed, AUC(0-t)",[9]; [22],0.92
same,"Fold difference, predicted/observed, Cmax",[9]; [22],0.86
same,"Fold difference, predicted/observed, AUC(0-t)",[9]; [23],1.02
same,"Fold difference, predicted/observed, Cmax",[9]; [23],0.73
same,"Fold difference, predicted/observed, AUC(0-t)","[9]; single 2.5 mg oral dose, solution vs capsule",0.89
same,"Fold difference, predicted/observed, AUC(0-t)","[9]; single 10 mg oral dose, IR tablet",0.80
same,"Fold difference, predicted/observed, AUC(0-t)",[9]; [24],0.85
same,"Fold difference, predicted/observed, Cmax",[9]; [24],0.45
same,"Fold difference, predicted/observed, AUC(0-t)",[9]; [25],0.71
same,"Fold difference, predicted/observed, Cmax",[9]; [25],0.34
same,"Fold difference, predicted/observed, AUC(0-t)",[9]; [26],1.29
same,"Fold difference, predicted/observed, Cmax",[9]; [26],0.85
same,"Fold difference, predicted/observed, AUC(0-t)",[9]; [27],0.76
same,"Fold difference, predicted/observed, Cmax",[9]; [27],1.08
same,residual ratio after incubation with other recombinant CYP isoforms,[10],≥ 81%
same,biliary excretion of lemborexant,[11],no biliary excretion
same,transport of lemborexant via P-glycoprotein,P-glycoprotein,negligible
same,CL/F (apparent oral clearance),[12]; 10 mg capsule,32.8 L/h
same,unchanged lemborexant in feces,[12]; [14C]lemborexant 10 mg,13.0 % of dose
same,unchanged lemborexant in urine,[12]; [14C]lemborexant 10 mg,not detected
same,time-dependent inhibition on CYP3A,CYP3A [13],weak
same,transport of lemborexant via breast cancer resistance protein,[14],negligible
same,Observed Cmax,"[15]; fasted, food effect study",57.1 ng/mL
same,Observed Tmax,"[15]; fasted, food effect study, median",1.00 h
same,Observed Cmax,[15]; fed (standard high-fat meal),44.1 ng/mL
same,blood plasma ratio,"[16]; B:P (blood-to-plasma partition ratio), mean, mean value from unpublished data reported by Eisai Inc.",0.636
same,blood plasma ratio,"[16]; human blood to plasma concentration ratio (B:P), concentration range 100–1000 ng/ml, unpublished data reported by Eisai Inc.",0.61 to 0.656
same,clinical efficacy (sleep),[17]; doses of 5 mg and above,clinically meaningful sleep benefits
same,somnolence adverse events,[17]; lemborexant exposures greater than 10 mg,increased risk of somnolence adverse events
same,inductive effect on CYP2B6,CYP2B6 [18],weak
same,increase in AUCR with strong and moderate CYP3A inhibitors,CYP3A [19]; co-administered with itraconazole and fluconazole,≤ 3.8 fold
same,reduction of lemborexant AUC(0-inf),CYP3A [19]; [28],97%
same,reduction of lemborexant Cmax,CYP3A [19]; [28],92%
same,increase in lemborexant AUC(0-t),CYP3A [19]; [29],3.8 fold
same,increase in lemborexant Cmax,CYP3A [19]; [29],1.6 fold
same,increase in lemborexant Cmax,CYP3A [19]; lemborexant 10 mg with itraconazole 200 mg q.d.,1.36 fold
same,inductive effect on CYP3A4,CYP3A4 [20],weak
same,residual ratio after incubation with recombinant CYP3A4,CYP3A4 [21],30%
